For the assay, the target named is T1, steroid 17α-hydroxylase and/or steroid C17-20 lyase (Rattus norvegicus, UniProt P11715).
T1 construct: the testis of rats (SD, male) was homogenized and centrifuged to obtain microsome; from tissue; host or cells: rat (SD, male) testis microsomes
T1 sequence (P11715 1-507): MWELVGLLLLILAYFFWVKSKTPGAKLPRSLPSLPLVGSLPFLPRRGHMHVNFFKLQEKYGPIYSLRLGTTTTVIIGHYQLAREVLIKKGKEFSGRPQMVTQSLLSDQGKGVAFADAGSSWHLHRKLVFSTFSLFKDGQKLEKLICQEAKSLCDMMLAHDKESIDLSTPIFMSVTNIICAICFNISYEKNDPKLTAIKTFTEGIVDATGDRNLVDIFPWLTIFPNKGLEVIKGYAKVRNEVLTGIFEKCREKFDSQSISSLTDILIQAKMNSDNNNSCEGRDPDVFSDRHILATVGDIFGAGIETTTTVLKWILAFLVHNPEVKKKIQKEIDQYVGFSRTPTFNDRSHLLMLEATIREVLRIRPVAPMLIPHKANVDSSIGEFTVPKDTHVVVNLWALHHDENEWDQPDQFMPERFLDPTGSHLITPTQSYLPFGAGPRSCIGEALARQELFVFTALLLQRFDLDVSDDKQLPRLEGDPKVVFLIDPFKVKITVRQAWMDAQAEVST
Nature of the assay: Measurement of steroid 17α-hydroxylase and/or steroid C17-20 lyase inhibitory activity (rat testis microsome, HPLC). The assay is classed as biochemical. To be noted: Enzyme source: rat testis microsome; test compound 300 nM; substrate 25 μM 17α-hydroxyprogesterone; NADPH 500 μM; 20 minutes at 37° C. How it is done:
An experiment was carried out according to the method of T. Sergejew and R. W. Hartmann (J. Enzyme Inhibition, 8, 113(1994)). That is, the testis of rats (SD, male) was homogenized and centrifuged to obtain microsome. […] After the addition of 100 μl of microsome protein solution, the protein contentration was adjusted to 0.1 mg/ml by 50 mM phosphate buffer solution (pH 7.4), 140 μl of 125 nmol NADPH solution, and 10 μl of 6.25 nmol 17α-hydroxyprogesterone, the mixture was incubated for 20 minutes at 37° C. 50 μl of 1N hydrochloric acid and 1000 μl of ethyl acetate were sequentially added to the mixture. The mixture was shaken and centrifuged. The ethyl acetate layer was washed with 250 μl of 50 mM phosphate buffer solution (pH 7.4) and 50 μl of 1N hydrochloric acid, centrifuged, and concentrated. The concentrate was dissolved in 100 μl of acetonitrile. 10 μl of this solution was charged to high performance liquid chromatography. The amounts of the substrate and the product (androstenedione and testosterone) were measured to calculate the enzyme activity. In this experiment, a sample without the test compound was provided as a control group. Steroid 17α-hydroxylase and/or steroid C17-20-lyase inhibitory activity (%) was calculated by the following equation (1) using the amounts of the substrate and the product obtained.

Where a name gives a salt, the structure may show the parent alone.

Usually inhibition stands for the drop in the measured response relative to a control, in per cent. A low value points to a response near the control. For the compound `COc1ccc2c(-c3cccnc3)csc2c1` [Example 2, 3-[6-methoxybenzo[b]thiophen-3-yl]pyridine hydrochloride], testing at 0.3 µM gave an inhibition of 89%.
Same read-out and setting: the result for `COc1ccc(-c2ccc3c(-c4ccncc4)csc3c2)cc1` [Example 7, 4-[6-(4-methoxyphenyl)benzo[b]thiophen-3-yl]pyridine] reads 60%; that for `Oc1ccc2c(-c3cccnc3)csc2c1` [Example 8, 3-(3-pyridyl)benzo[b]thiophen-6-ol], 59%.
For `CC(=O)Oc1ccc2c(-c3cccnc3)csc2c1` [Example 9, 3-(3-pyridyl)benzo[b]thiophen-6-yl=acetate], the “Inhibitory activity (%)” value is 63%.
Same read-out and setting: as for `O=C(Oc1ccc2c(-c3cccnc3)csc2c1)c1ccccc1` [Example 10, 3-(3-pyridyl)benzo[b]thiophen-6-yl=benzoate], the figure is 71%.
`c1ccc(COc2ccc3c(-c4cccnc4)csc3c2)cc1` [Example 11, 3-(6-benzyloxybenzo[b]thiophen-3-yl)pyridine hydrochloride]: the inhibition at 0.3 µM amounted to 71%.
On the same count and under the same terms, the result for `CC(C)Oc1ccc2c(-c3cccnc3)csc2c1` [Example 12, 3-(6-isopropyloxybenzo[b]thiophen-3-yl)pyridine hydrochloride] reads 100%; that for `Fc1ccc(-c2ccc3c(-c4cccnc4)csc3c2)cc1` [Example 13, 3-[6-(4-fluorophenyl)benzo[b]thiophen-3-yl]pyridine hydrochloride], 93%; that for `Fc1cccc(-c2ccc3c(-c4cccnc4)csc3c2)c1` [Example 14, 3-[6-(3-fluorophenyl)benzo[b]thiophen-3-yl]pyridine], 91%.
Still for that read-out and setting: as for `c1ccc(-c2ccc3c(-c4cccnc4)csc3c2)cc1` [Example 15, 3-(6-phenylbenzo[b]thiophen-3-yl)pyridine], the figure is 93%.
`COc1cccc(-c2ccc3c(-c4cccnc4)csc3c2)c1` [Example 16, 3-[6-(3-methoxyphenyl)benzo[b]thiophen-3-yl]pyridine hydrochloride] registered an inhibition at 0.3 µM of 73%.
Same read-out and setting: the result for `COc1ccc(-c2ccc3c(-c4cccnc4)csc3c2)cc1` [Example 18, 3-[6-(4-methoxyphenyl)benzo[b]thiophen-3-yl]pyridine] reads 37%; that for `Oc1ccc(-c2ccc3c(-c4cccnc4)csc3c2)cc1` [Example 19, 4-[3-(3-pyridyl)benzo[b]thiophen-6-yl]-phenol], 68%; that for `COc1ccc(-c2ccc3c(-c4cccnc4)csc3c2)cc1OC` [Example 21, 3-[6-(3,4-dimethoxyphenyl)benzo[b]thiophen-3-yl]pyridine], 30%.
In turn, `Oc1ccc(-c2ccc3c(-c4cccnc4)csc3c2)cc1O` [Example 22, 4-[3-(3-pyridyl)benzo[b]thiophen-6-yl]benzene-1,2-diol] yielded an inhibition at 0.3 µM of 73%.
Still for that read-out and setting: the result for `Nc1cccc(-c2ccc3c(-c4cccnc4)csc3c2)c1` [Example 23, 3-[3-(3-pyridyl)benzo[b]thiophen-6-yl]phenylamine] reads 100%.
Take `c1cncc(-c2csc3cc(OC4CCCC4)ccc23)c1` [Example 25, 3-(6-cyclopentyloxybenzo[b]thiophen-3-yl)pyridine hydrochloride]: the inhibition at 0.3 µM was 76%.
In the case of `COc1cccc(Oc2ccc3c(-c4cccnc4)csc3c2)c1` [Example 26, 3-[6-(3-methoxyphenoxy)benzo[b]thiophen-3-yl]pyridine hydrochloride], at 0.3 µM the inhibition was 1%.
On the same count and under the same terms, as for `Cc1ccc2c(-c3cccnc3)csc2c1` [Example 27, 3-(6-methylbenzo[b]thiophen-3-yl)pyridine hydrochloride], the figure is 56%; as for `Brc1ccc2c(-c3cccnc3)csc2c1` [Example 28, 3-(6-bromobenzo[b]thiophen-3-yl)pyridine hydrochloride], 42%; as for `Brc1cccc2scc(-c3cccnc3)c12` [Example 29, 3-(4-bromobenzo[b]thiophen-3-yl)pyridine hydrochloride], 25%.
The compound `c1cncc(-c2csc3cc(OC4CCC4)ccc23)c1` [Example 30, 3-(6-cyclobutyloxybenzo[b]thiophen-3-yl) pyridine hydrochloride] yielded an inhibition at 0.3 µM of 100%.
`c1cncc(-c2csc3cc(-c4ccsc4)ccc23)c1` [Example 31, 3-[6-(3-thienyl)benzo[b]thiophen-3-yl]pyridine hydrochloride] had an inhibition at 0.3 µM of 100%.
Still for that read-out and setting: the result for `c1cncc(-c2csc3cc(-c4ccoc4)ccc23)c1` [Example 32, 3-[6-(3-furyl)benzo[b]thiophen-3-yl]pyridine hydrochloride] reads 100%.
Still for that read-out and setting: as for `c1cncc(-c2csc3cc(-c4cccs4)ccc23)c1` [Example 33, 3-[6-(2-thienyl)benzo[b]thiophen-3-yl]pyridine hydrochloride], the figure is 100%; as for `c1cncc(-c2csc3cc(-c4ccco4)ccc23)c1` [Example 34, 3-[6-(2-furyl)benzo[b]thiophen-3-yl]pyridine hydrochloride], 100%.
`CCCCCCOc1ccc2c(-c3cccnc3)csc2c1` [Example 35, 3-(6-hexyloxybenzo[b]thiophen-3-yl)pyridine hydrochloride]: at 0.3 µM the inhibition was 61%.
For the compound `CCCCCOc1ccc2c(-c3cccnc3)csc2c1` [Example 36, 3-(6-amyloxybenzo[b]thiophen-3-yl)pyridine hydrochloride], 0.3 µM produced 60% inhibition.
The same measure, in the same setting: the result for `CCCCOc1ccc2c(-c3cccnc3)csc2c1` [Example 37, 3-(6-butyloxybenzo[b]thiophen-3-yl)pyridine hydrochloride] reads 80%.
The same measure, in the same setting: the result for `CC(=O)c1ccccc1-c1ccc2c(-c3cccnc3)csc2c1` [Example 38, 1-{2-[3-(3-pyridyl)benzo[b]thiophen-6-yl]phenyl}-1-ethanone hydrochloride] reads 45%; that for `CC(=O)c1cccc(-c2ccc3c(-c4cccnc4)csc3c2)c1` [Example 39, 1-{3-[3-(3-pyridyl)benzo[b]thiophen-6-yl]phenyl}-1-ethanone], 64%; that for `CC(C)COc1ccc2c(-c3cccnc3)csc2c1` [Example 40, 3-(6-isobutyloxybenzo[b]thiophen-3-yl) pyridine hydrochloride], 79%.
The compound `CCCOc1ccc2c(-c3cccnc3)csc2c1` [Example 41, 3-(6-propyloxybenzo[b]thiophen-3-yl)pyridine hydrochloride] showed an inhibition at 0.3 µM of 95%.
Take `c1cncc(-c2csc3cc(-c4ccc5c(c4)OCO5)ccc23)c1` [Example 42, 3-[6-(1,3-benzodioxol-5-yl)benzo[b]thiophen-3-yl]pyridine hydrochloride]: the inhibition at 0.3 µM is 57%.
On the same count and under the same terms, as for `CCOc1ccc2c(-c3cccnc3)csc2c1` [Example 43, 3-(6-ethyloxybenzo[b]thiophen-3-yl)pyridine hydrochloride], the figure is 97%; as for `CC(=O)c1ccc(-c2ccc3c(-c4cccnc4)csc3c2)cc1` [Example 44, 1-{4-[3-(3-pyridyl)benzo[b]thiophen-6-yl]phenyl}-1-ethanone], 46%; as for `CN(C)CCOc1ccc2c(-c3cccnc3)csc2c1` [Example 45, 3-[6-(N,N-dimethyl-2-aminoethyloxy)benzo[b]thiophen-3-yl]pyridine dimaleate], 33%.
`CC(C)Cc1ccc2c(-c3cccnc3)csc2c1` [Example 46, 3-(6-isobutylbenzo[b]thiophen-3-yl)pyridine hydrochloride] displayed an inhibition at 0.3 µM of 100%.
The same measure, in the same setting: the result for `CSc1ccc(-c2ccc3c(-c4cccnc4)csc3c2)cc1` [Example 47, 3-[6-(4-methylthiophenyl)benzo[b]thiophen-3-yl]pyridine hydrochloride] reads 53%.
For the compound `Cl.FC(F)(F)c1ccccc1-c1ccc2c(-c3cccnc3)csc2c1` [Example 48, 3-{[6-(2-trifluoromethyl)phenyl]benzo[b]thiophen-3-yl}pyridine hydrochloride], the “Inhibitory activity (%)” value amounted to 54%.
For `CC(C)Nc1cccc(-c2ccc3c(-c4cccnc4)csc3c2)c1` [Example 49, isopropyl {3-[3-(3-pyridyl)benzo[b]thiophen-6-yl]phenyl}amine], the inhibition at 0.3 µM was determined as 67%.

(Values after patent publication US20030130340A1, “Novel benzothiophene derivatives” (Daiichi Pharmaceutical Co. Ltd., priority 2000, published 2003).)
